Literature values in patent publication US8007545B2, “Deodorant compositions” (Kao Corporation, priority 2005, dated 2011).

Settings: 1-octanol/water; actual database value or C log P

Compared with `CCCCC(CC)COCC(O)CO` (stereo not drawn) [b3-2, 2-Ethylhexyl monoglyceryl ether], `CCCCCCOC(CO)COCC(O)CO` (stereo not drawn) [b3-1, Glyceryl ether monohexyl ether] is lower in “log P” value: 2.0 for the first, 1.1 for the second.

For `CCCCOCCOCCO` [b3-3, Diethylene glycol monobutyl ether], the “log P” value is listed as 0.6.
